Values quoted from earlier work as cited in patent US12465608B2, “Osimertinib for use in the treatment of non-small cell lung cancer” (AstraZeneca AB, priority 2019, dated 2025).

Key:
[1] = tested on: patients with advanced mutation-positive EGFR (Ex19del or L858R) NSCLC; details: for median progression free survival (PFS): first-line therapy, FLAURA
[2] = tested on: patients with advanced EGFR mutation-positive NSCLC who were never- or light-former smokers; details: erlotinib combined with carboplatin plus paclitaxel; subgroup of patients with EGFR mutations
[3] = tested on: patients with EGFR mutation-positive NSCLC

Structure (SMILES) | median progression free survival (PFS) [1] [months] | events of CNS progression, patients ([1]; irrespective of known or treated CNS metastases at trial entry) [%] | PFS hazard ratio (HR) ([1]; osimertinib vs erlotinib or gefitinib, 95% CI 0.37, 0.57, p<0.0001) | median CNS PFS ([1]; patients with CNS metastases on a baseline brain scan) | reduction in the risk of CNS progression ([1]; patients with CNS metastases on a baseline brain scan, vs standard EGFR-TKIs) [%] | CNS PFS HR ([1]; patients with CNS metastases on a baseline brain scan, vs standard EGFR-TKIs, 95% CI 0.26-0.86, p=0.014) | side effects, combination vs erlotinib monotherapy [2] | PFS hazard ratio (HR) ([3]; dacomitinib vs gefitinib, 95% CI 0.47-0.74, p<0.0001) | median PFS ([3]; first line treatment, EGFR mutation-positive NSCLC) [months]
C=CC(=O)Nc1cc(Nc2nccc(-c3cn(C)c4ccccc34)n2)c(OC)cc1N(C)CCN(C)C [osimertinib, N-(2-{2-dimethylaminoethyl-methylamino}-4-methoxy-5-{[4-(1-methylindol-3-yl)pyrimidin-2-yl]amino}phenyl) prop-2-enamide] | 18.9 | 6 | 0.46 | not reached | 52 | 0.48 |  |  | 
C#Cc1cccc(Nc2ncnc3cc(OCCOC)c(OCCOC)cc23)c1 [erlotinib] | 10.2 |  |  |  |  |  | more side effects |  | 
COc1cc2ncnc(Nc3ccc(F)c(Cl)c3)c2cc1NC(=O)/C=C/CN1CCCCC1 [dacomitinib, (2E)-N-{4-[(3-chloro-4-fluorophenyl)amino]-7-methoxyquinazolin-6-yl}-4-(piperidin-1-yl)but-2-enamide] |  |  |  |  |  |  |  | 0.59 | 14.7
